Patent US20230024096A1, “BIFUNCTIONAL COMPOUNDS FOR THE TREATMENT OF CANCER” (Hoffmann-La Roche Inc., priority 2019, published 2023)

Biological target: T1, SMARCA2 (Homo sapiens, UniProt P51531)
T1 construct: endogenous in cells; host or cells: HT1080 (CRISPR HiBiT knock-in clone, generated in house)
Experiment: SMARCA2 HiBiT degradation assay (cellular)
Format: cell-based
Conditions: table head names A549; for DC50: 6 h incubation, HiBiT-tagged SMARCA2, luminescence read-out, read-out: HiBit A549 SMARCA2 IP (nM) 6 h; for Emax: A549, 6 h incubation, Emax = amount of residual protein remaining in the cell following compound treatment

T1 sequence (P51531 whole entry): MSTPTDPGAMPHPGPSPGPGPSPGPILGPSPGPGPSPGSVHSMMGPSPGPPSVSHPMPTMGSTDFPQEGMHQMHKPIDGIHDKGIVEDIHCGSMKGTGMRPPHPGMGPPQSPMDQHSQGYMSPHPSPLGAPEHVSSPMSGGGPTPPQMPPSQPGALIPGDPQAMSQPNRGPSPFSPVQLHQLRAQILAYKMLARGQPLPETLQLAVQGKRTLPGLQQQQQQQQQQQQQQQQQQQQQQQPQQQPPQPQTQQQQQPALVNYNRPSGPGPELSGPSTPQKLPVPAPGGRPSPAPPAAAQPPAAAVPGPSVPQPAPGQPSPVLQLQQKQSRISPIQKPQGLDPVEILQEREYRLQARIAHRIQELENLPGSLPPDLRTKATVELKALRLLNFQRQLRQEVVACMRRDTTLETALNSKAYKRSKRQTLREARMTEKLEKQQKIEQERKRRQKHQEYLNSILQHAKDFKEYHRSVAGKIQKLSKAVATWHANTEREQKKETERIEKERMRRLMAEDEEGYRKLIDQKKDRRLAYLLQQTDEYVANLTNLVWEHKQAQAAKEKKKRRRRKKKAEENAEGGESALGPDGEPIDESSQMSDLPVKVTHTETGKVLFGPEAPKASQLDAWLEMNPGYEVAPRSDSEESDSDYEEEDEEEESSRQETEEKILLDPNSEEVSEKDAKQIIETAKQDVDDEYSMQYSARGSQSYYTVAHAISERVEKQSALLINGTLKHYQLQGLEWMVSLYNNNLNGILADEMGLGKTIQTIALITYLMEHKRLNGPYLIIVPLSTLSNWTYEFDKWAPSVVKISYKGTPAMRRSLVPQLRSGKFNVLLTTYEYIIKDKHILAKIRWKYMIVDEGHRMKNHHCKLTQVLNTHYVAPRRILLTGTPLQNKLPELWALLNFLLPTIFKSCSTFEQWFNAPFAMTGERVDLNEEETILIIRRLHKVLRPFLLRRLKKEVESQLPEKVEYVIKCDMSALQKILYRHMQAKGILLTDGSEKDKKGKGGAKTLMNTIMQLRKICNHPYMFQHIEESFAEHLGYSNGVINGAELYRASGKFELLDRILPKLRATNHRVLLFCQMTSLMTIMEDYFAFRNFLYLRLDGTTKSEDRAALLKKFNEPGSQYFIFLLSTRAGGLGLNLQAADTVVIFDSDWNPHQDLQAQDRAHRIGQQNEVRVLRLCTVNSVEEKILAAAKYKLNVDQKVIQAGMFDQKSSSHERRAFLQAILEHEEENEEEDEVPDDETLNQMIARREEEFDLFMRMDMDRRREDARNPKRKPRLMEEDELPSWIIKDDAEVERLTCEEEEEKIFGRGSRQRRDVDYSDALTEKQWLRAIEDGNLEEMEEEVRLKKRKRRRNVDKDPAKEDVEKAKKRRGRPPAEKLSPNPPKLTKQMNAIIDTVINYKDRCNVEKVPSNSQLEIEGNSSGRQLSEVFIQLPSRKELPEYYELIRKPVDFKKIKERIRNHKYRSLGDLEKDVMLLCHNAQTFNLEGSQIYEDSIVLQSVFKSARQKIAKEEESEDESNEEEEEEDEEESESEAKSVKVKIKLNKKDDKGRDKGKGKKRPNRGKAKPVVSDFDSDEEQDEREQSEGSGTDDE

DC50 [nM] | Emax [%] | Structure (SMILES)
802 | 62 | Nc1nnc(-c2ccccc2O)cc1OC1CCCN(c2ccc(N3CCN(CCCCCCCCCc4ccnc(CNc5cccc6c5C(=O)N(C5CCC(=O)NC5=O)C6=O)c4)CC3)cc2)C1 (stereo not shown) [Example 139, 4-[[4-[9-[4-[4-[3-[3-amino-6-(2-hydroxyphenyl)pyridazin-4-yl]oxy-1-piperidyl]phenyl]piperazin-1-yl]nonyl]-2-pyridyl]methylamino]-2-(2,6-dioxo-3-piperidyl)isoindoline-1,3-dione]
241 | 62 | Nc1nnc(-c2ccccc2O)cc1N1CCC(NC(=O)CC2CCN(C(=O)CCCN3CCC(c4ccc(NC5CCC(=O)NC5=O)cc4)CC3)CC2)(c2ccccc2)CC1 (stereo not shown) [Example 185, N-[1-[3-amino-6-(2-hydroxyphenyl)pyridazin-4-yl]-4-phenyl-4-piperidyl]-2-[1-[4-[4-[4-[(2,6-dioxo-3-piperidyl)amino]phenyl]-1-piperidyl]butanoyl]-4-piperidyl]acetamide]
70 | 46 | Nc1nnc(-c2ccccc2O)cc1N1CCC(CNC(=O)C2CCN(c3ccc4c(c3)C(=O)N(C3CCC(=O)NC3=O)C4=O)CC2)(c2ccccc2)CC1 (stereo not shown) [Example 74, N-((1-(3-amino-6-(2-hydroxyphenyl)pyridazin-4-yl)-4-phenylpiperidin-4-yl)methyl)-1-(2-(2,6-dioxopiperidin-3-yl)-1,3-dioxoisoindolin-5-yl)piperidine-4-carboxamide]
281 | 62 | Nc1nnc(-c2ccccc2O)cc1N1CC(Oc2cccc(CN3CCN(C(=O)CCCCCCCCCNc4cccc5c4C(=O)N(C4CCC(=O)NC4=O)C5=O)CC3)c2)C1 (stereo not shown) [Example 32, 4-[[10-[4-[[3-[1-[3-amino-6-(2-hydroxyphenyl)pyridazin-4-yl]azetidin-3-yl]oxyphenyl]methyl]piperazin-1-yl]-10-oxo-decyl]amino]-2-(2,6-dioxo-3-piperidyl)isoindoline-1,3-dione]
256 | 56 | Nc1nnc(-c2ccccc2O)cc1OC1CCCN(c2ccc(OCCN3CCN(C(=O)CCCCCCCCCCCCCCn4cc(CNc5cccc6c5C(=O)N(C5CCC(=O)NC5=O)C6=O)nn4)CC3)cc2)C1 (stereo not shown) [Example 24, 4-[[1-[15-[4-[2-[4-[3-[3-amino-6-(2-hydroxyphenyl)pyridazin-4-yl]oxy-1-piperidyl]phenoxy]ethyl]piperazin-1-yl]-15-oxo-pentadecyl]triazol-4-yl]methylamino]-2-(2,6-dioxo-3-piperidyl)isoindoline-1,3-dione]
553 | 65 | Nc1nnc(-c2ccccc2O)cc1N1CC(Oc2ccc(C(=O)N3CCN(C(=O)CCCCCCCCCNc4cccc5c4C(=O)N(C4CCC(=O)NC4=O)C5=O)CC3)cc2)C1 (stereo not shown) [Example 150, 4-[[10-[4-[4-[1-[3-amino-6-(2-hydroxyphenyl)pyridazin-4-yl]azetidin-3-yl]oxybenzoyl]piperazin-1-yl]-10-oxo-decyl]amino]-2-(2,6-dioxo-3-piperidyl)isoindoline-1,3-dione]
103 | 37 | Nc1nnc(-c2ccccc2O)cc1OC1CCCN(c2ccc(N3CCN(CCCCCCCCCn4cc(C5(Nc6cccc7c6C(=O)N(C6CCC(=O)NC6=O)C7=O)CC5)nn4)CC3)cc2)C1 (stereo not shown) [Example 90, 4-[[1-[1-[9-[4-[4-[3-[3-amino-6-(2-hydroxyphenyl)pyridazin-4-yl]oxy-1-piperidyl]phenyl]piperazin-1-yl]nonyl]triazol-4-yl]cyclopropyl]amino]-2-(2,6-dioxo-3-piperidyl)isoindoline-1,3-dione]
103 | 47 | Nc1nnc(-c2cc(F)cc(F)c2O)cc1N1CCC(CNC(=O)CCCN2CCC(c3ccc(OC4CCC(=O)NC4=O)cc3)CC2)(c2ccccc2)CC1 (stereo not shown) [Example 182, N-[[1-[3-amino-6-(3,5-difluoro-2-hydroxy-phenyl)pyridazin-4-yl]-4-phenyl-4-piperidyl]methyl]-4-[4-[4-[(2,6-dioxo-3-piperidyl)oxy]phenyl]-1-piperidyl]butanamide]
103 | 33 | Nc1nnc(-c2ccccc2O)cc1N1CCC(C(=O)NCC2CCN(C(=O)CCCN3CCC(c4ccc(OC5CCC(=O)NC5=O)cc4)CC3)CC2)(c2ccccc2)CC1 (stereo not shown) [Example 104, 1-(3-amino-6-(2-hydroxyphenyl)pyridazin-4-yl)-N-((1-(4-(4-(4-((2,6-dioxopiperidin-3-yl)oxy)phenyl)piperidin-1-yl)butanoyl)piperidin-4-yl)methyl)-4-phenylpiperidine-4-carboxamide]
99 | 56 | Nc1nnc(-c2ccccc2O)cc1N1CCC(C(=O)N2CCC3(CC2)CN(C(=O)CCCN2CCC(c4ccc(OC5CCC(=O)NC5=O)cc4)CC2)CCO3)(c2ccccc2)CC1 (stereo not shown) [Example 181, 3-(4-(1-(4-(9-(1-(3-amino-6-(2-hydroxyphenyl)pyridazin-4-yl)-4-phenylpiperidine-4-carbonyl)-1-oxa-4,9-diazaspiro[5.5]undecan-4-yl)-4-oxobutyl)piperidin-4-yl)phenoxy)piperidine-2,6-dione]
75 | 34 | Nc1nnc(-c2ccccc2O)cc1N1CCC(C(=O)N2CC3(CN(C(=O)CCCN4CCC(c5ccc(OC6CCC(=O)NC6=O)cc5)CC4)C3)C2)(c2ccccc2)CC1 (stereo not shown) [Example 123, 3-(4-(1-(4-(6-(1-(3-amino-6-(2-hydroxyphenyl)pyridazin-4-yl)-4-phenylpiperidine-4-carbonyl)-2,6-diazaspiro[3.3]heptan-2-yl)-4-oxobutyl)piperidin-4-yl)phenoxy)piperidine-2,6-dione]
 | 31 | Nc1nnc(-c2ccccc2O)cc1N1CCC(C(=O)N2CCC(C(=O)N3CCN(c4ccc(C5CCC(=O)NC5=O)cc4)CC3)CC2)(c2ccccc2)CC1 (stereo not shown) [Example 176, 3-(4-(4-(1-(1-(3-amino-6-(2-hydroxyphenyl)pyridazin-4-yl)-4-phenylpiperidine-4-carbonyl)piperidine-4-carbonyl)piperazin-1-yl)phenyl)piperidine-2,6-dione]

Structure (SMILES) | DC50 [nM] | Emax [%]
Nc1nnc(-c2ccccc2O)cc1N1CC2CCC(C1)N2c1cccc(OCCN2CCN(C(=O)CC3CCN(c4ccc5c(c4)C(=O)N(C4CCC(=O)NC4=O)C5=O)CC3)CC2)c1 (racemic) [Example 33, rac-5-[4-[2-[4-[2-[3-[3-[3-amino-6-(2-hydroxyphenyl)pyridazin-4-yl]-3,8-diazabicyclo[3.2.1]octan-8-yl]phenoxy]ethyl]piperazin-1-yl]-2-oxo-ethyl]-1-piperidyl]-2-(2,6-dioxo-3-piperidyl)isoindoline-1,3-dione] | 15 | 39
Nc1nnc(-c2ccccc2O)cc1N1CC2CCC(C1)N2c1cccc(OCCN2CCN(CC3CCN(c4ccc5c(c4)C(=O)N(C4CCC(=O)NC4=O)C5=O)CC3)CC2)c1 (racemic) [Example 38, rac-5-[4-[[4-[2-[3-[3-[3-amino-6-(2-hydroxyphenyl)pyridazin-4-yl]-3,8-diazabicyclo[3.2.1]octan-8-yl]phenoxy]ethyl]piperazin-1-yl]methyl]-1-piperidyl]-2-(2,6-dioxo-3-piperidyl)isoindoline-1,3-dione] | 20 | 29
Nc1nnc(-c2ccccc2O)cc1N1CC2CCC(C1)N2c1cccc(OCCN2CCN(C(=O)N3CCC4(CC3)CCN(c3ccc5c(c3)C(=O)N(C3CCC(=O)NC3=O)C5=O)CC4)CC2)c1 (racemic) [Example 52, rac-5-[3-[4-[2-[3-[3-[3-amino-6-(2-hydroxyphenyl)pyridazin-4-yl]-3,8-diazabicyclo[3.2.1]octan-8-yl]phenoxy]ethyl]piperazine-1-carbonyl]-3,9-diazaspiro[5.5]undecan-9-yl]-2-(2,6-dioxo-3-piperidyl)isoindoline-1,3-dione] | 37 | 52
Nc1nnc(-c2ccccc2O)cc1N1CC2CCC(C1)N2c1cccc(OCCN2CCN(C(=O)CCCNC(=O)COc3cccc4c3C(=O)N(C3CCC(=O)NC3=O)C4=O)CC2)c1 (racemic) [Example 17, rac-N-[4-[4-[2-[3-[3-[3-amino-6-(2-hydroxyphenyl)pyridazin-4-yl]-3,8-diazabicyclo[3.2.1]octan-8-yl]phenoxy]ethyl]piperazin-1-yl]-4-oxo-butyl]-2-[2-(2,6-dioxo-3-piperidyl)-1,3-dioxo-isoindolin-4-yl]oxy-acetamide] | 1440 | 64
Nc1nnc(-c2ccccc2O)cc1N1CC2CCC(C1)N2c1cccc(CN2CCC(C(=O)N3C[C@@H]4CN(c5ccc6c(c5)C(=O)N(C5CCC(=O)NC5=O)C6=O)C[C@@H]4C3)CC2)c1 (relative stereo) [Example 171, rac-2-(2,6-dioxo-3-piperidyl)-5-[rel-(3aR,6aS)-5-[1-[[3-[3-[3-amino-6-(2-hydroxyphenyl)pyridazin-4-yl]-3,8-diazabicyclo[3.2.1]octan-8-yl]phenyl]methyl]piperidine-4-carbonyl]-1,3,3a,4,6,6a-hexahydropyrrolo[3,4-c]pyrrol-2-yl]isoindoline-1,3-dione] | 66 | 40
Nc1nnc(-c2ccccc2O)cc1N1CC2CCC(C1)N2c1cccc(OCCN2CCN(C(=O)N3CCN(c4ccc(NC5CCC(=O)NC5=O)cc4)CC3)CC2)c1 (racemic) [Example 81, rac-3-[4-[4-[4-[2-[3-[3-[3-amino-6-(2-hydroxyphenyl)pyridazin-4-yl]-3,8-diazabicyclo[3.2.1]octan-8-yl]phenoxy]ethyl]piperazine-1-carbonyl]piperazin-1-yl]anilino]piperidine-2,6-dione] | 16 | 56
Nc1nnc(-c2ccccc2O)cc1N1CC2CCC(C1)N2c1cccc(OCCN2CCN(C(=O)CCCCCNc3cccc4c3C(=O)N(C3CCC(=O)NC3=O)C4=O)CC2)c1 (racemic) [Example 12, rac-4-[[6-[4-[2-[3-[3-[3-amino-6-(2-hydroxyphenyl)pyridazin-4-yl]-3,8-diazabicyclo[3.2.1]octan-8-yl]phenoxy]ethyl]piperazin-1-yl]-6-oxo-hexyl]amino]-2-(2,6-dioxo-3-piperidyl)isoindoline-1,3-dione] | 60 | 55
